ChEMBL document CHEMBL3045118, “Synthesis and biological activities of new Mannich bases of chlorokojic acid derivatives” (Med Chem Res, 2011)
In brackets after ≈: the same amount, converted by molar mass. Activity calls are given as the source filed them. The rule behind the calls is not given here.

Legend:
Format in all cases: functional
Candida albicans = experiment: Antifungal activity against Candida albicans ATCC 10231 by microdilution method
Candida parapsilosis = experiment: Antifungal activity against Candida parapsilosis ATCC 22019 by microdilution method
Bacillus subtilis [1] = experiment: Antibacterial activity against ceftriaxon-resistant Bacillus subtilis by microdilution method
Enterococcus faecalis [2] = experiment: Antibacterial activity against cephalosporins and beta-lactam-resistant Enterococcus faecalis by microdilution method
Bacillus subtilis [3] = experiment: Antibacterial activity against Bacillus subtilis ATCC 6633 by microdilution method
Enterococcus faecalis [4] = experiment: Antibacterial activity against Enterococcus faecalis ATCC 29212 by microdilution method
Staphylococcus aureus [5] = experiment: Antibacterial activity against Staphylococcus aureus ATCC 25923 by microdilution method
Acinetobacter baumannii [6] = experiment: Antibacterial activity against trimethoprim-sulfamethoxazole, cefepime-resistant Acinetobacter baumannii by microdilution method
Acinetobacter baumannii [7] = experiment: Antibacterial activity against Acinetobacter baumannii RSKK 02026 by microdilution method
Klebsiella pneumoniae [8] = experiment: Antibacterial activity against ESbetaL positive trimethoprim-sulfamethoxazole, amoxicillin clavulonat, cefriaxon, cephepim, aztreonam-resistant Klebsiella pneumoniae by microdilution method
Klebsiella pneumoniae [9] = experiment: Antibacterial activity against Klebsiella pneumoniae RSKK 574 by microdilution method
Proteus mirabilis [10] = experiment: Antibacterial activity against Proteus mirabilis ATCC 7002 by microdilution method
Proteus mirabilis [11] = experiment: Antibacterial activity against ESbetaL positive rimethoprim-sulfamethoxazole, cefepime, tazobactam-resistant Proteus mirabilis by microdilution method
Pseudomonas aeruginosa [12] = experiment: Antibacterial activity against trimethoprim-sulfamethoxazole, tazobactam-resistant Pseudomonas aeruginosa by microdilution method
Pseudomonas aeruginosa [13] = experiment: Antibacterial activity against Pseudomonas aeruginosa ATCC 10145 by microdilution method
Escherichia coli [14] = experiment: Antibacterial activity against ESbetaL positive trimethoprim-sulfamethoxazole, cefepime, tazobactam-resistant Escherichia coli isolate by microdilution method
Escherichia coli [15] = experiment: Antibacterial activity against Escherichia coli ATCC 35218 by microdilution method
Staphylococcus aureus [16] = experiment: Antibacterial activity against oxacillin, gentamicin, aztreonam, trimethoprim-sulfamethoxazole-resistant Staphylococcus aureus by microdilution method
Human respirovirus 3 [17] = experiment: Antiviral activity against Human parainfluenza virus 3 infected African green monkey Vero cells assessed as concentration required to cause minimum inhibition of virus-induced cytopathic effect
Human respirovirus 3 [18] = experiment: Antiviral activity against Human parainfluenza virus 3 infected African green monkey Vero cells assessed as concentration required to cause maximum inhibition of virus-induced cytopathic effect

Q: With CN[C@H](CC(C)C)C(=O)N[C@H]1C(=O)N[C@@H](CC(N)=O)C(=O)N[C@H]2C(=O)N[C@H]3C(=O)N[C@H](C(=O)N[C@H](C(=O)O)c4cc(O)cc(O)c4-c4cc3ccc4O)[C@H](O)c3ccc(c(Cl)c3)Oc3cc2cc(c3O[C@@H]2O[C@H](CO)[C@@H](O)[C@H](O)[C@H]2O[C@H]2C[C@](C)(N)[C@H](O)[C@H](C)O2)Oc2ccc(cc2Cl)[C@H]1O [VANCOMYCIN] as the compound, how does the MIC (Candida albicans) read?
A: The MIC was “inactive”.

Q: What about the MIC (Candida parapsilosis) of the same compound?
A: The MIC was “inactive”.

Q: And the MIC (Bacillus subtilis [1])?
A: The MIC was “inactive”.

Q: What about the MIC (Enterococcus faecalis [2]) of the same compound?
A: The MIC was “inactive”.

Q: What about the MIC (Bacillus subtilis [3]) of the same compound?
A: The MIC was “inactive”.

Q: And the MIC (Enterococcus faecalis [4])?
A: The MIC was “inactive”.

Q: What about the MIC (Staphylococcus aureus [5]) of the same compound?
A: The MIC was 0.12 µg/mL (≈ 0.0828 µM).

Q: And the MIC (Acinetobacter baumannii [6])?
A: The MIC was “inactive”.

Q: What about the MIC (Acinetobacter baumannii [7]) of the same compound?
A: Its MIC is “inactive”.

Q: What about the MIC (Klebsiella pneumoniae [8]) of the same compound?
A: Its MIC is “inactive”.

Q: And the MIC (Klebsiella pneumoniae [9])?
A: The MIC was “inactive”.

Q: And the MIC (Proteus mirabilis [10])?
A: The MIC was “inactive”.

Q: What about the MIC (Proteus mirabilis [11]) of the same compound?
A: The MIC was “inactive”.

Q: What about the MIC (Pseudomonas aeruginosa [12]) of the same compound?
A: Its MIC is “inactive”.

Q: And the MIC (Pseudomonas aeruginosa [13])?
A: The MIC was “inactive”.

Q: And the MIC (Escherichia coli [14])?
A: Its MIC is “inactive”.

Q: And the MIC (Escherichia coli [15])?
A: Its MIC is “inactive”.

Q: With C[C@H]1COc2c(N3CCN(C)CC3)c(F)cc3c(=O)c(C(=O)O)cn1c23.C[C@H]1COc2c(N3CCN(C)CC3)c(F)cc3c(=O)c(C(=O)O)cn1c23.O [LEVOFLOXACIN] as the compound, how does the MIC (Candida albicans) read?
A: Its MIC is “inactive”.

Q: And the MIC (Candida parapsilosis)?
A: Its MIC is “inactive”.

Q: What about the MIC (Bacillus subtilis [1]) of the same compound?
A: Its MIC is “inactive”.

Q: And the MIC (Enterococcus faecalis [2])?
A: The MIC was 32 µg/mL.

Q: What about the MIC (Bacillus subtilis [3]) of the same compound?
A: Its MIC is “inactive”.

Q: What about the MIC (Enterococcus faecalis [4]) of the same compound?
A: Its MIC is 0.5 µg/mL.

Q: What about the MIC (Staphylococcus aureus [16]) of the same compound?
A: Its MIC is 128 µg/mL.

Q: What about the MIC (Staphylococcus aureus [5]) of the same compound?
A: Its MIC is 0.25 µg/mL.

Q: And the MIC (Acinetobacter baumannii [6])?
A: Its MIC is 64 µg/mL.

Q: And the MIC (Acinetobacter baumannii [7])?
A: The MIC was 0.12 µg/mL.

Q: What about the MIC (Klebsiella pneumoniae [9]) of the same compound?
A: The MIC was under 0.12 µg/mL.

Q: What about the MIC (Proteus mirabilis [10]) of the same compound?
A: Its MIC is under 0.12 µg/mL.

Q: What about the MIC (Proteus mirabilis [11]) of the same compound?
A: The MIC was 1 µg/mL.

Q: With CC1COc2c(N3CCN(C)CC3)c(F)cc3c(=O)c(C(=O)O)cn1c23 (stereo unspecified) [OFLOXACIN] as the compound, how does the MIC (Candida albicans) read?
A: The MIC was “inactive”.

Q: What about the MIC (Candida parapsilosis) of the same compound?
A: Its MIC is “inactive”.

Q: And the MIC (Bacillus subtilis [1])?
A: Its MIC is “inactive”.

Q: And the MIC (Enterococcus faecalis [2])?
A: Its MIC is 32 µg/mL (≈ 88.6 µM).

Q: And the MIC (Bacillus subtilis [3])?
A: Its MIC is “inactive”.

Q: And the MIC (Enterococcus faecalis [4])?
A: Its MIC is 1 µg/mL (≈ 2.77 µM).

Q: What about the MIC (Staphylococcus aureus [16]) of the same compound?
A: Its MIC is 64 µg/mL (≈ 177 µM).

Q: What about the MIC (Staphylococcus aureus [5]) of the same compound?
A: The MIC was 0.25 µg/mL (≈ 0.692 µM).

Q: And the MIC (Acinetobacter baumannii [6])?
A: Its MIC is 64 µg/mL (≈ 177 µM).

Q: What about the MIC (Acinetobacter baumannii [7]) of the same compound?
A: Its MIC is 0.12 µg/mL (≈ 0.332 µM).

Q: And the MIC (Klebsiella pneumoniae [9])?
A: Its MIC is under 0.12 µg/mL.

Q: And the MIC (Proteus mirabilis [10])?
A: Its MIC is under 0.12 µg/mL.

Q: And the MIC (Proteus mirabilis [11])?
A: Its MIC is 1 µg/mL.

Q: OC(Cn1cncn1)(Cn1cncn1)c1ccc(F)cc1F [FLUCONAZOLE] was tested. Which MIC (Candida albicans) did it give?
A: The MIC was 2 µg/mL (≈ 6.53 µM).

Q: And the MIC (Candida parapsilosis; Lodderomyces parapsilosis)?
A: The MIC was 4 µg/mL (≈ 13.1 µM).

Q: And the MIC (Bacillus subtilis [1])?
A: Its MIC is “inactive”.

Q: And the MIC (Enterococcus faecalis [2])?
A: Its MIC is “inactive”.

Q: And the MIC (Bacillus subtilis [3])?
A: Its MIC is “inactive”.

Q: What about the MIC (Enterococcus faecalis [4]) of the same compound?
A: The MIC was “inactive”.

Q: What about the MIC (Staphylococcus aureus [16]) of the same compound?
A: The MIC was “inactive”.

Q: And the MIC (Staphylococcus aureus [5])?
A: Its MIC is “inactive”.

Q: Which Activity (Human respirovirus 3 [17]) does the source give for CCOC(=O)C1=C[C@@H](OC(CC)CC)[C@H](NC(C)=O)[C@@H](N)C1 [OSELTAMIVIR] here?
A: Its Activity is under 0.012 µg/mL.

Q: What about the Activity (Human respirovirus 3 [18]) of the same compound?
A: The Activity was 1.6 µg/mL.

Q: GENTAMICIN was tested. Which MIC (Candida albicans) did it give?
A: Its MIC is “inactive”.

Q: What about the MIC (Candida parapsilosis) of the same compound?
A: Its MIC is “inactive”.

Q: What about the MIC (Bacillus subtilis [1]) of the same compound?
A: Its MIC is “inactive”.

Q: What about the MIC (Enterococcus faecalis [2]) of the same compound?
A: Its MIC is “inactive”.

Q: What about the MIC (Bacillus subtilis [3]) of the same compound?
A: The MIC was “inactive”.

Q: And the MIC (Enterococcus faecalis [4])?
A: Its MIC is “inactive”.

Q: What about the MIC (Staphylococcus aureus [16]) of the same compound?
A: The MIC was “inactive”.

Q: And the MIC (Staphylococcus aureus [5])?
A: Its MIC is “inactive”.

Q: What about the MIC (Acinetobacter baumannii [6]) of the same compound?
A: Its MIC is “inactive”.

Q: What about the MIC (Acinetobacter baumannii [7]) of the same compound?
A: Its MIC is “inactive”.

Q: What about the MIC (Klebsiella pneumoniae [8]) of the same compound?
A: The MIC was “inactive”.

Q: What about the MIC (Klebsiella pneumoniae [9]) of the same compound?
A: The MIC was “inactive”.

Q: What about the MIC (Proteus mirabilis [10]) of the same compound?
A: Its MIC is “inactive”.

Q: And the MIC (Proteus mirabilis [11])?
A: The MIC was “inactive”.

Q: And the MIC (Pseudomonas aeruginosa [12])?
A: Its MIC is “inactive”.

Q: And the MIC (Pseudomonas aeruginosa [13])?
A: Its MIC is “inactive”.

Q: What about the MIC (Escherichia coli [14]) of the same compound?
A: The MIC was “inactive”.

Q: And the MIC (Escherichia coli [15])?
A: The MIC was “inactive”.

Q: Which results are given for CC1(C)S[C@@H]2[C@H](NC(=O)[C@H](N)c3ccccc3)C(=O)N2[C@H]1C(=O)O [AMPICILLIN]?
A: MIC (Candida albicans): inactive; MIC (Candida parapsilosis): inactive; MIC (Bacillus subtilis [1]): 0.5 µg/mL (≈ 1.43 µM); MIC (Enterococcus faecalis [2]): > 128 µg/mL; MIC (Bacillus subtilis [3]): 0.12 µg/mL (≈ 0.343 µM); MIC (Enterococcus faecalis [4]): 0.5 µg/mL (≈ 1.43 µM); MIC (Staphylococcus aureus [16]): > 128 µg/mL; MIC (Staphylococcus aureus [5]): < 0.12 µg/mL; MIC (Acinetobacter baumannii [6]): > 128 µg/mL; MIC (Acinetobacter baumannii [7]): 2 µg/mL (≈ 5.72 µM); MIC (Klebsiella pneumoniae [8]): > 128 µg/mL; MIC (Klebsiella pneumoniae [9]): 2 µg/mL (≈ 5.72 µM); MIC (Proteus mirabilis [10]): 2 µg/mL (≈ 5.72 µM); MIC (Proteus mirabilis [11]): > 128 µg/mL; MIC (Pseudomonas aeruginosa [12]): inactive; MIC (Pseudomonas aeruginosa [13]): inactive; MIC (Escherichia coli [14]): > 128 µg/mL

Q: With CC(=O)N1CCN(c2ccc(OCC3COC(Cn4ccnc4)(c4ccc(Cl)cc4Cl)O3)cc2)CC1 (stereo unspecified) [KETOCONAZOLE] as the compound, how does the MIC (Candida albicans) read?
A: Its MIC is 1 µg/mL (≈ 1.88 µM).

Q: What about the MIC (Candida parapsilosis; Lodderomyces parapsilosis) of the same compound?
A: The MIC was 1 µg/mL (≈ 1.88 µM).

Q: And the MIC (Bacillus subtilis [1])?
A: The MIC was “inactive”.

Q: And the MIC (Enterococcus faecalis [2])?
A: Its MIC is “inactive”.

Q: And the MIC (Bacillus subtilis [3])?
A: The MIC was “inactive”.

Q: What about the MIC (Enterococcus faecalis [4]) of the same compound?
A: The MIC was “inactive”.

Q: What about the MIC (Staphylococcus aureus [16]) of the same compound?
A: The MIC was “inactive”.

Q: What about the MIC (Staphylococcus aureus [5]) of the same compound?
A: The MIC was “inactive”.
